According to US9028856B2, “Synergistic pesticide compositions” (priority 2008, dated 2015):

Key:
Type in all cases: in vivo
Aedes aegypti mosquito = test: USDA Petri Dish Method, 3 min exposure to dipped fiberglass window screen; conditions: Table 39, permethrin without adjuvant (Permanone 40), dipped screen, 3 min exposure
Description: MATERIALS AND METHODS: Aqueous solutions of 1% deltamethrin with and without an adjuvant composition, which is sold under the tradename Suspend® SC. […] Pre-cut fiberglass screen (5″×5″, or 161.3 cm^2) were dipped in each treatment solution and excessive solution was allowed to drain completely (see FIG. 23 a). Weight of the solution coated on the screen was then determined. The treated screen was then allowed to air-dry overnight. USDA Petri Dish Method was used as initial screening protocol (see FIG. 23 b). Twenty, 4-6 day old female Aedes aegypti were exposed to treated window screen for 3 minutes and then moved onto a clean untreated white paper index card. Treatments were replicated a minimum of three times. Mosquito knockdown was evaluated at 3 minute intervals for the first 15 minutes and then at 5 minute intervals for the remainder of an hour. A small cotton ball with sucrose solution was added on the screen top of the Petri dish as a drinking source. Mortality was evaluated at 24 hours after exposure.
MATERIALS AND METHODS: Several rates of permethrin without adjuvant were prepared using product sold under the tradename Permanone® 40 to determine an effective rate against Aedes aegypti mosquitoes. After determining an effective rate range, aqueous solutions of permethrin at 1.25, 1.0 and 0.05% AI were prepared with and without adjuvant. […] Pre-cut fiberglass screens (5″×5″ or 161.3 cm^2) were dipped in each treatment solution allowing excessive solution to drain completely. Weight of the solution coated on the screen was then determined. The treated screen was then allowed to air-dry overnight. USDA Petri Dish Method was used as initial screening protocol (see photo, right). Twenty, 4-6 day old female Aedes aegypti were exposed to treated window screen for 3 minutes and then moved to a clean untreated white paper index card. Treatments were replicated a minimum of three times. Mosquito knockdown was evaluated at 3 minute intervals for the first 15 minutes and then at 5 minute intervals for the remainder of an hour. A small cotton ball with sucrose solution was added on the screen top of the petri-dish as a drinking source. Mortality was evaluated at 24 hours after exposure.

[1] = test system: malaria mosquito (Anopheles gambiae); test: Five-minute exposure bioassay, WHO Adult Mosquito Susceptibility Test Kit, treated filter paper; conditions: for KT 50 / KT 95 / % knock down after 10′ / % knock down after 15′ / % knock down after 20′ / % knock down after 25′ / % knock down after 30′ / % knock down after 45′ / % knock down after 60′ / % mortality 1 d: Table 80, filter paper (mg/m^2); for % mortality 1 d: mortality 24 hours post exposure; for % knock down after 5′: Table 80, technical sample on filter paper (mg/m^2)
Description: The bioassays were carried out using the WHO Adult Mosquito Susceptibility Test Kit, (WHO/VBC 81.805, 1981) with plastic cylinders (4.5 cm diameter, 12 cm height). All bioassays were done using preferably female sugar fed Anopheles gambiae mosquitoes. Knock down was recorded after at 5, 10, 15, 20, 25, 30, 45 and 60 minutes, when the mosquitoes were supplied with a 5% sugar water source for 24 hours. Mortality was recorded 24 hours post exposure. Each test consisted of three replicates from which the mean values were calculated. The insecticides (all technical grades) were applied as 2 ml acetone solutions onto filter papers (12 cm×15 cm).

[2] = test system: tropical house mosquito Culex quinquefasciatus (adults, 3 days old); test: Efficacy of formulations on surfaces (glazed/unglazed tiles, plywood), ten 3 day old mosquitoes, 3 min exposure; conditions: for efficacy enhancement of the insecticide by the additive (summary in words): Culex quinquefasciatus, 3 min exposure, mostly 0.1% bendiocarb + 1% additive on glazed tiles; for % KD and Mortality: in acetone on glazed tiles, Table 84
Description: The ingredients were diluted in acetone to give a concentration which corresponds to the desired quantity of a.i./m^2. A 1 ml quantity of the solution was applied by pipette onto the 15 cm×15 cm surfaces without treating the outer edge of 1 cm.
(§1) Ten 3 day old Culex quinquefasciatus mosquitoes were exposed to each treatment for 3 minutes under a perforated petri dish, and then a clean untreated white paper index card was moved between treated surface and petri dish. A water-soaked cotton pad was applied immediately after.
Each test consisted of three replicates (three batches of ten mosquitoes were exposed for three minutes to the same surface, each one hour later), of which the mean values are calculated.
The test insects were Culex quinquefasciatus (adults, 3 days old). The compositions were evaluated for their ability to provide effective knock down after 3, 9, 15, and 30 minutes, 1, 2, 3, 4 and 24 hours (mortality). The experiments were performed in triplicate on glazed tile, but not repeated on wood.
Test Insects are Culex quinquefasciatus (adults, 3 days old). The Application provides the technical compounds were dissolved in acetone and applied as 1 ml solutions onto glazed tiles (15 cm×15 cm). An evaluation is provided at knock down after 3, 9, 15, and 30 minutes, 1, 2, 3, 4 and 24 hours (mortality). There are 3 replicates.
Test Insects: Culex quinquefasciatus (adults, 3 days old)
Application: The technical compounds were dissolved in acetone and applied as 1 ml solutions onto glazed tiles (15 cm×15 cm).
Evaluation: Knock down after 3, 9, 15, and 30 minutes, 1, 2, 3, 4 and 24 hours (mortality) […]
Application: The active ingredients were applied as 1 ml acetone solutions onto glazed tiles (15 cm×15 cm) […]
as §1, with “For the mosquitoes, the USDA Petri Dish Method is used. Ten” for “Ten”, “are” for “were”, “dish” for “dish,”, “is” for “was”, “after. […]” for “after.”

Row | Structure (SMILES) | KT 50 [1] [min] | KT 95 [1] [min] | % knock down after 10′ [1] [%] | % knock down after 15′ [1] [%] | % knock down after 20′ [1] [%] | % knock down after 25′ [1] [%] | % knock down after 30′ [1] [%] | % knock down after 45′ [1] [%] | % knock down after 60′ [1] [%] | % mortality 1 d [1] [%] | % knock down after 5′ [1] [%] | further results
1 | CC1(C)C(C=C(Cl)Cl)C1C(=O)OCc1cccc(Oc2ccccc2)c1 (stereo not shown) [Permethrin (1.75%)] |  |  |  |  |  |  |  |  |  |  |  | Average % Knockdown & Mortality after 3 min (Aedes aegypti mosquito; 3 min): 40%; Average % Knockdown & Mortality after 9 min (Aedes aegypti mosquito; 9 min): 95%; Average % Knockdown & Mortality after 15 min (Aedes aegypti mosquito; 15 min): 100%; Average % Knockdown & Mortality after 30 min (Aedes aegypti mosquito; 30 min): 100%; Average % Knockdown & Mortality after 60 min (Aedes aegypti mosquito; 60 min): 100%; Average % Knockdown & Mortality after 24 hr (Aedes aegypti mosquito; 24 hr): 100%
2 | CNC(=O)Oc1cccc2c1OC(C)(C)O2 [5 mg Bendiocarb] | >60 | >60 | 6 | 6 | 6 | 6 | 6 | 6 | 6 | 12 | 6 | 
3 | CC1(C)C(C=C(Br)Br)C1C(=O)OC(C#N)c1cccc(Oc2ccccc2)c1 (stereo not shown) [20 mg DTM] | 21 | >60 | 23 | 39 | 45 | 52 | 66 | 79 | 86 | 75 | 9 | 
4 | CNC(=O)Oc1cccc2c1OC(C)(C)O2 [10 mg Bendiocarb] | >60 | >60 | 2 | 2 | 27 | 2 | 2 | 2 | 2 | 9 | 2 | 
5 | CNC(=O)Oc1cccc2c1OC(C)(C)O2 [20 mg Bendiocarb] | >60 | >60 | 6 | 4 | 6 | 13 | 13 | 20 | 21 | 27 | 3 | 
6 | CNC(=O)Oc1cccc2c1OC(C)(C)O2 [40 mg bendiocarb] | 12 | >60 | 50 | 56 | 68 | 74 | 76 | 81 | 85 | 94 | 16 | 
7 | O=C(CCCCCCCCC(=O)ON1C(=O)CCC1=O)ON1C(=O)CCC1=O [Derivative 4, Sebacic acid-bis-(N-succinimidyl)ester] |  |  |  |  |  |  |  |  |  |  |  | efficacy enhancement of the insecticide by the additive (summary in words) ([2]; details as worded): weaker as Compound A in both tests; efficacy enhancement of the insecticide by the additive (summary in words) ([2]; details as worded, listed as Sebacic acid-bis-(N-succinimidyl)ester): equivalent to Compound A
8 | CC1(C)[C@H](C(=O)O[C@H](C#N)c2cccc(Oc3ccccc3)c2)[C@@H]1C=C(Br)Br [10 mg DTM] | >60 | >60 | 2 | 2 | 2 | 5 | 9 | 18 | 26 | 17 | 0 | 
9 | CN1C(C)(C)CC(O)CC1(C)C [Derivative 8, 1,2,2,6,6-Pentamethyl-4-piperidinol] |  |  |  |  |  |  |  |  |  |  |  | efficacy enhancement of the insecticide by the additive (summary in words) ([2]; details as worded): acted weaker in both tests; efficacy enhancement of the insecticide by the additive (summary in words) ([2]; details as worded, listed as 1,2,2,6,6-Pentamethyl-4-piperidinol): no efficacy enhancement
10 | O=C(O)CCCCCCCCC(=O)O [Derivative 2, Sebacic acid] |  |  |  |  |  |  |  |  |  |  |  | efficacy enhancement of the insecticide by the additive (summary in words) ([2]; details as worded, listed as Sebacic acid): no efficacy enhancement; efficacy enhancement of the insecticide by the additive (summary in words) ([2]; details as worded, listed as derivative 2): acted weaker in both tests
11 | CC1(C)[C@H](C(=O)O[C@H](C#N)c2cccc(Oc3ccccc3)c2)[C@@H]1C=C(Br)Br [40 mg DTM] | 10 | 40 | 53 | 66 | 76 | 92 | 97 | 100 | 100 | 83 | 22 | 
12 | CC1(C)[C@H](C(=O)O[C@H](C#N)c2cccc(Oc3ccccc3)c2)[C@@H]1C=C(Br)Br [5 mg DTM] | >60 | >60 | 6 | 4 | 6 | 6 | 7 | 15 | 19 | 13 | 6 | 
13 | COC(=O)CCCCCCCCC(=O)OC [1% Dimethyl sebacate] |  |  |  |  |  |  |  |  |  |  |  | % KD and Mortality ([2]; 3′): 0%; % KD and Mortality ([2]; 9′): 0%; % KD and Mortality ([2]; 15′): 0%; % KD and Mortality ([2]; 30′): 0%; % KD and Mortality ([2]; 1 h): 0%; % KD and Mortality ([2]; 2 h): 0%; % KD and Mortality ([2]; 3 h): 0%; % KD and Mortality ([2]; 4 h): 0%; % KD and Mortality ([2]; 24 h (mortality)): 0%
14 | O=C1O[C@H]([C@@H](O)CO)C(O)=C1O [ascorbic acid] |  |  |  |  |  |  |  |  |  |  |  | efficacy enhancement of the insecticide by the additive (summary in words) ([2]; details as worded): complete decrease of efficacy
15 | CC1(C)CC(O)CC(C)(C)N1[O] [Derivative 9, 4-Hydroxy-2,2,6,6 tetramethylpiperidin-1-oxyl] |  |  |  |  |  |  |  |  |  |  |  | efficacy enhancement of the insecticide by the additive (summary in words) [2]: acted weaker in both tests; efficacy enhancement of the insecticide by the additive (summary in words) ([2]; listed as 4-Hydroxy-2,2,6,6 tetramethylpiperidin-1-oxyl (free radical)): inhibited the efficacy of bendiocarb
